The target of data set [1] is T1, serotonine (5-HT) reuptake in synaptosomes (Rattus norvegicus, UniProt P31652).
T1 construct: in synaptosomes as described in WO 97/16451; from tissue
As to the kind of experiment: Inhibition of 5-HT reuptake in synaptosomes. The class given is biochemical. The note with it: 3H-5-HT, read-out: 5-HT-uptake IC50. The procedure: (§1) Compounds were tested for their ability to inhibit the reuptake of the monoamine neurotransmitters dopamine (DA) noradrenaline (NA) and serotonine (5-HT) in synaptosomes as described in WO 97/16451 (NeuroSearch A/S).
(§2) The test values are given as IC50 (the concentration (μM) of the test substance which inhibits the specific binding of ^3H-DA, ^3H-NA, or ^3H-5-HT by 50%).

The target in data set [2] is T2, dopamine (DA) reuptake in synaptosomes (Rattus norvegicus, UniProt P23977).
T2 construct: in synaptosomes as described in WO 97/16451; from tissue
T2 sequence (P23977 whole entry): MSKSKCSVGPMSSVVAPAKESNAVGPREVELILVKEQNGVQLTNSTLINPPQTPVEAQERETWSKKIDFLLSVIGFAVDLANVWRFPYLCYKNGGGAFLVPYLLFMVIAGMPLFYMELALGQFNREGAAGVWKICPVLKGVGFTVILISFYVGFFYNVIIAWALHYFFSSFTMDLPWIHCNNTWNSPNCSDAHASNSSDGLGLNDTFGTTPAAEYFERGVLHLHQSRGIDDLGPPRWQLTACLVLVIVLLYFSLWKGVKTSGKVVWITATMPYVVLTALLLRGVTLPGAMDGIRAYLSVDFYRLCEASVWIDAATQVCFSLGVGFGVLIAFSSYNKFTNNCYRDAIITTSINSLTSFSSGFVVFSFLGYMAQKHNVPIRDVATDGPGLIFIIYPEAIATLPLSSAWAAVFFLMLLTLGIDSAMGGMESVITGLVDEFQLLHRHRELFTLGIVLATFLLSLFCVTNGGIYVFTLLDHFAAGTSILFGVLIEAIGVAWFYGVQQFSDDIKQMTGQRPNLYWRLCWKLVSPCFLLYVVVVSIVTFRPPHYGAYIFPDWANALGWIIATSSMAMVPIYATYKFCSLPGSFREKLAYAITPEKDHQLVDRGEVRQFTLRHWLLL
The data set is described as follows: Inhibition of DA reuptake in synaptosomes. The class given is biochemical. The note with it: 3H-DA, read-out: DA-uptake IC50. As to the method: as §1, §2

Data set [3] concerns the target T3, noradrenaline (NA) reuptake in synaptosomes (Rattus norvegicus, UniProt Q63380).
T3 construct: in synaptosomes as described in WO 97/16451; from tissue
The data set is described as follows: Inhibition of NA reuptake in synaptosomes. In kind it is biochemical. The following applies: 3H-NA, read-out: NA-uptake IC50. The procedure:
as §1, §2

This is an account of results in US20110053984A1, “NOVEL 4-BENZHYDRYLOXY-TETRAALKYL-PIPERIDINE DERIVATIVES AND THEIR USE AS MONOAMINE NEUROTRANSMITTER RE-UPTAKE INHIBITORS” (NeuroSearch A/S, priority 2008, published 2011).

As a reminder, the IC50 is the concentration that gives 50% inhibition. Usually melting point stands for the temperature, or range, at which the solid turns liquid.

Structures are written as SMILES. Counter-ions that a name gives are not always drawn. Where only a bound is given, the exact number is not on record here.

T3 sequence (Q63380 1-617): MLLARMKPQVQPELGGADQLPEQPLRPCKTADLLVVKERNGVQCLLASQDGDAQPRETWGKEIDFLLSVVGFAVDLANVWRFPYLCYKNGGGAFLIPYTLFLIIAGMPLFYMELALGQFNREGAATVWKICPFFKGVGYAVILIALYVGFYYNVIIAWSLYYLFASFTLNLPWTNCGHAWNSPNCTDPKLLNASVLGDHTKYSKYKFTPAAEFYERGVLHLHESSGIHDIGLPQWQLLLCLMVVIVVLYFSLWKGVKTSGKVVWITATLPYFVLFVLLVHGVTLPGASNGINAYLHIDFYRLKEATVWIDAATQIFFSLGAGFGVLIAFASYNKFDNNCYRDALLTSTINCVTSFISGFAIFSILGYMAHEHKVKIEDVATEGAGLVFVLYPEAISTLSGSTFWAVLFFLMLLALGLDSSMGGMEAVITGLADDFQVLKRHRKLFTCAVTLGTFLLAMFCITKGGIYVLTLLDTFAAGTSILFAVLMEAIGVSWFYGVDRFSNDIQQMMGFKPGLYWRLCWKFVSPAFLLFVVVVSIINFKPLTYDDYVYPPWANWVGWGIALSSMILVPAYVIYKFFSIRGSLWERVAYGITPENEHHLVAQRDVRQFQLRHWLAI
T1 sequence (P31652 whole entry): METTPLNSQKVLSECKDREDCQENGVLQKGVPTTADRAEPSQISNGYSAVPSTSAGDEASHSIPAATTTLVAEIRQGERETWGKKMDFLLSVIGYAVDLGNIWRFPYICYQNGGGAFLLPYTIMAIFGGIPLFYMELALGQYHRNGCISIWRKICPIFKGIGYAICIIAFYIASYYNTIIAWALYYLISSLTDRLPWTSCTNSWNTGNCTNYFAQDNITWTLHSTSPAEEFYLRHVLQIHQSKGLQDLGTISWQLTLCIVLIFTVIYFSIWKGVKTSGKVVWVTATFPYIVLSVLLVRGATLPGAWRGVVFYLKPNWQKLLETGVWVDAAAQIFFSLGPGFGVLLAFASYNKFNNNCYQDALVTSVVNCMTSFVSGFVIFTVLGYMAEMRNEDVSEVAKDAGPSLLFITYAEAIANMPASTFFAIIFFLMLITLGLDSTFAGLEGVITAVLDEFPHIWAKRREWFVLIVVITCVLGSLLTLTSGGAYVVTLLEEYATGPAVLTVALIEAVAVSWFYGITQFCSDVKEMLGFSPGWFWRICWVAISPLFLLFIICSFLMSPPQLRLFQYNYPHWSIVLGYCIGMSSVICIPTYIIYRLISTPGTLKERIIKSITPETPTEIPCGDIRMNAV

As to `CC1(C)CC(OC(c2ccc(F)cc2)c2ccc(F)cc2)CC(C)(C)N1` [4-[Bis-(4-fluoro-phenyl)-methoxy]-2,2,6,6-tetramethyl-piperidine], the IC50 was above 1000 nM in data set [1], 38 nM in data set [2] and 590 nM in data set [3].
`CC1(C)CC(OC(c2ccc(F)cc2)c2ccc(F)cc2)CC(C)(C)N1` (as salt: hydrochloric acid salt) [4-[Bis-(4-fluoro-phenyl)-methoxy]-2,2,6,6-tetramethyl-piperidine]: the melting point was in the range of 242 to 265 °C.
On to `CC1(C)CC(OC(c2ccccc2)c2ccccc2)CC(C)(C)N1` [4-Benzhydryloxy-2,2,6,6-tetramethyl-piperidine], for which the IC50 is 26000 nM in data set [1], 400 nM in data set [2] and 60 nM in data set [3].
Regarding `CC1(C)CC(OC(c2ccccc2)c2ccccc2)CC(C)(C)N1` (as salt: hydrochloric acid salt) [4-Benzhydryloxy-2,2,6,6-tetramethyl-piperidine], the melting point is 184.1 to 185.9 °C.
